Measurements: patent publication US20140303198A1, “AGENT FOR INHIBITING EXPRESSION OF NPC1L1 AND/OR LIPG MRNA AND AGENT FOR PREVENTING AND/OR TREATING OBESITY” (KOWA COMPANY, LTD., priority 2011, published 2014)

Assays:
NPC1L1 mRNA = assay: DNA microarray gene expression profile in HepG2 cells (Test Example 2), NPC1L1; assay type: cell-based, human; settings: 24 hours, treated vs untreated cells
Procedure: (§1) A compound of a test compound group was added to cells of a human hepatocellular carcinoma cell line HepG2, and the cells were then cultured for 24 hours. Thereafter, the gene expression profile was measured using the DNA microarray of Agilent. Specifically, the HepG2 cells were inoculated at a concentration of 2×10^5 cells/well into a 24-well plate, and were then cultured overnight. Thereafter, Compound 2 was dissolved in dimethyl sulfoxide (DMSO) to give concentrations of 1 μM and 10 μM, whereas Anacetrapib was dissolved in DMSO to give a concentration of […]. The thus prepared solution was added to the culture fluid in an amount of 1/1000-fold of the culture fluid. The cells were cultured at 37° C. for 24 hours in a CO2 incubator. Thereafter, 500 μL of ISOGEN (Nippon Gene Co., Ltd., Catalog No. 31-02501) was added to the culture, and total RNA was then extracted. Cy3-labeled cRNA was synthesized from 200 ng of the RNA using Low Input Quick Amp Labeling Kit (Agilent, Catalog No. 5190-2308). The synthesized Cy3-labeled cRNA was hybridized to Whole Human Genome (4×44K) (Agilent, Catalog No. G4110F), using GE Hybridization Buffer HI-RPM (Agilent, Catalog No. 5190-0403). After completion of the hybridization, the DNA microarray was washed with Gene Expression Wash Buffer (Agilent, Catalog No. 5188-5327), and data were then scanned with a scanner (Agilent).
(§2) The analysis was carried out using GeneSpring (Agilent), and the change rate of the expression level of each gene was calculated.
(§3) (Change rate)=(Expression level of each gene in cells treated with compound)[…](Expression level of each gene in cells untreated with compound)

LIPG mRNA = assay: DNA microarray gene expression profile in HepG2 cells (Test Example 2), LIPG; assay type: cell-based, human; settings: 24 hours, treated vs untreated cells
Procedure: as §1, §2, §3

| Structure (SMILES) | Change rate (fold) of NPC1L1 expression level (NPC1L1 mRNA; 10 μM) | Change rate (fold) of LIPG expression level (LIPG mRNA; 10 μM) | Change rate (fold) of NPC1L1 expression level (NPC1L1 mRNA; 1 μM) | Change rate (fold) of LIPG expression level (LIPG mRNA; 1 μM) |
| --- | --- | --- | --- | --- |
| COc1cc(F)c(C(C)C)cc1-c1ccc(C(F)(F)F)cc1CN1C(=O)O[C@H](c2cc(C(F)(F)F)cc(C(F)(F)F)c2)[C@@H]1C [Anacetrapib, (4S,5R)-5-[3,5-bis(trifluoromethyl)phenyl]-3-((4′-fluoro-5′-isopropyl-2′-methoxy-4-(trifluoromethyl)-[1,1′-biphenyl]-2-yl)methyl)-4-methyloxazolidin-2-one, reference compound] | −1.5 fold | −1.9 fold |  |  |
| CCN(C[C@H]1CC[C@H](CC(=O)O)CC1)c1ccc(C(F)(F)F)cc1CN(c1ncc(OCCS(C)(=O)=O)cn1)[C@@H](C)c1cc(C(F)(F)F)cc(C(F)(F)F)c1 [Compound 2, (S)-(−)-trans-{4-[({2-[({1-[3,5-bis(trifluoromethyl)phenyl]ethyl}{5-[2-(methylsulfonyl)ethoxy]pyrimidin-2-yl}amino)methyl]-4-(trifluoromethyl)phenyl}(ethyl)amino)methyl]cyclohexyl}ac etic acid] | −3.1 fold | −6.2 fold | −2.3 fold | −2.5 fold |
